Source: PubChem BioAssay AID1963853 (Molecular Pharmacology Branch, DTP, NCI, 2024)

Test system: 266295-075-R-J1-PDC spheroid viability
Experiment: Anticancer human tumor 266295-075-R-J1-PDC patient-derived head and neck squamous carcinoma cell line growth inhibition [POLQ]
Conditions: spheroids with HUVEC and MSC; for IC50: curve of first compound; for viability, T/C: stronger effect = lower value
Procedure, shortened: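 PDC + HUVEC + MSC complex spheroids; POLQ inhibitors ± partner drugs; top conc. at/near clinical Cmax, else 10 microM (SN-38 1 microM), half-log dilutions; 37 degrees C, 5% CO2.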

[1] = second compound 0.0316 µM, first compound 0.0316 µM
[2] = second compound 0.0316 µM, first compound 0.1 µM
[3] = second compound 0.0316 µM, first compound 0.316 µM
[4] = second compound 0.0316 µM, first compound 1 µM
[5] = second compound 0.1 µM, first compound 0.0316 µM
[6] = second compound 0.1 µM, first compound 0.1 µM
[7] = second compound 0.1 µM, first compound 0.316 µM
[8] = second compound 0.1 µM, first compound 1 µM
[9] = second compound 0.316 µM, first compound 0.0316 µM
[10] = second compound 0.316 µM, first compound 0.1 µM
[11] = second compound 0.316 µM, first compound 0.316 µM
[12] = second compound 0.316 µM, first compound 1 µM
[13] = second compound 1 µM, first compound 0.0316 µM
[14] = second compound 1 µM, first compound 0.1 µM
[15] = second compound 1 µM, first compound 0.316 µM
[16] = second compound 1 µM, first compound 1 µM
[17] = second compound 3.16 µM, first compound 0.0316 µM
[18] = second compound 3.16 µM, first compound 0.1 µM
[19] = second compound 3.16 µM, first compound 0.316 µM
[20] = second compound 3.16 µM, first compound 1 µM
[21] = second compound 10 µM, first compound 0.0316 µM
[22] = second compound 10 µM, first compound 0.1 µM
[23] = second compound 10 µM, first compound 0.316 µM
[24] = second compound 10 µM, first compound 1 µM
[25] = second compound 0.0316 µM, first compound 3.16 µM
[26] = second compound 0.0316 µM, first compound 10 µM
[27] = second compound 0.1 µM, first compound 3.16 µM
[28] = second compound 0.1 µM, first compound 10 µM
[29] = second compound 0.316 µM, first compound 3.16 µM
[30] = second compound 0.316 µM, first compound 10 µM
[31] = second compound 1 µM, first compound 3.16 µM
[32] = second compound 1 µM, first compound 10 µM
[33] = second compound 3.16 µM, first compound 3.16 µM
[34] = second compound 3.16 µM, first compound 10 µM
[35] = second compound 10 µM, first compound 3.16 µM
[36] = second compound 10 µM, first compound 10 µM
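Further: spheroids exposed to compounds for seven days before readout.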

## C=CCn1c(=O)c2cnc(Nc3ccc(N4CCN(C)CC4)cc3)nc2n1-c1cccc(C(C)(C)O)n1 + COC1C(OC(N)=O)C(O)C(Oc2ccc3c(O)c(NC(=O)c4ccc(O)c(CC=C(C)C)c4)c(=O)oc3c2C)OC1(C)C
Second compound 0.0316 µM
  IC50: > 1000 nM
Second compound 0.1 µM
  IC50: > 1000 nM
Second compound 0.316 µM
  IC50: > 1000 nM
Second compound 1 µM
  IC50: > 1000 nM
Second compound 3.16 µM
  IC50: > 1000 nM
Second compound 10 µM
  IC50: > 1000 nM
Second compound 0.0316 µM, first compound 0.00316 µM
  viability, T/C: 106%
Second compound 0.0316 µM, first compound 0.01 µM
  viability, T/C: 111%
[1]
  viability, T/C: 103%
[2]
  viability, T/C: 102%
[3]
  viability, T/C: 91.4%
[4]
  viability, T/C: 65.5%
Second compound 0.1 µM, first compound 0.00316 µM
  viability, T/C: 112%
Second compound 0.1 µM, first compound 0.01 µM
  viability, T/C: 94.6%
[5]
  viability, T/C: 82.5%
[6]
  viability, T/C: 82.7%
[7]
  viability, T/C: 77.2%
[8]
  viability, T/C: 95.6%
Second compound 0.316 µM, first compound 0.00316 µM
  viability, T/C: 102%
Second compound 0.316 µM, first compound 0.01 µM
  viability, T/C: 93.8%
[9]
  viability, T/C: 95%
[10]
  viability, T/C: 104%
[11]
  viability, T/C: 87.4%
[12]
  viability, T/C: 70.6%
Second compound 1 µM, first compound 0.00316 µM
  viability, T/C: 97.1%
Second compound 1 µM, first compound 0.01 µM
  viability, T/C: 85.9%
[13]
  viability, T/C: 92%
[14]
  viability, T/C: 95.8%
[15]
  viability, T/C: 91.3%
[16]
  viability, T/C: 66.3%
Second compound 3.16 µM, first compound 0.00316 µM
  viability, T/C: 96%
Second compound 3.16 µM, first compound 0.01 µM
  viability, T/C: 90.8%
[17]
  viability, T/C: 96.7%
[18]
  viability, T/C: 98.3%
[19]
  viability, T/C: 88.6%
[20]
  viability, T/C: 65.3%
Second compound 10 µM, first compound 0.00316 µM
  viability, T/C: 104%
Second compound 10 µM, first compound 0.01 µM
  viability, T/C: 88.9%
[21]
  viability, T/C: 102%
[22]
  viability, T/C: 87.2%
[23]
  viability, T/C: 87%
[24]
  viability, T/C: 73.4%

## CC1COCCN1c1cc(-c2ccnn2C)c2ccnc(-c3ccn[nH]3)c2n1 (stereo unspecified) + COC1C(OC(N)=O)C(O)C(Oc2ccc3c(O)c(NC(=O)c4ccc(O)c(CC=C(C)C)c4)c(=O)oc3c2C)OC1(C)C
Second compound 0.0316 µM
  IC50: 4350 nM
Second compound 0.1 µM
  IC50: 2010 nM
Second compound 0.316 µM
  IC50: 1910 nM
Second compound 1 µM
  IC50: 3890 nM
Second compound 3.16 µM
  IC50: 4510 nM
Second compound 10 µM
  IC50: 1970 nM
[1]
  viability, T/C: 91.2%
[2]
  viability, T/C: 84.7%
[3]
  viability, T/C: 71.2%
[4]
  viability, T/C: 63.3%
[25]
  viability, T/C: 54.3%
[26]
  viability, T/C: 42.1%
[5]
  viability, T/C: 91.7%
[6]
  viability, T/C: 92.2%
[7]
  viability, T/C: 65.8%
[8]
  viability, T/C: 58%
[27]
  viability, T/C: 48.4%
[28]
  viability, T/C: 41.6%
[9]
  viability, T/C: 89.9%
[10]
  viability, T/C: 90.6%
[11]
  viability, T/C: 63.7%
[12]
  viability, T/C: 61.3%
[29]
  viability, T/C: 43.6%
[30]
  viability, T/C: 38.7%
[13]
  viability, T/C: 110%
[14]
  viability, T/C: 91.2%
[15]
  viability, T/C: 79.1%
[16]
  viability, T/C: 62.5%
[31]
  viability, T/C: 53.3%
[32]
  viability, T/C: 41%
[17]
  viability, T/C: 98.2%
[18]
  viability, T/C: 82.8%
[19]
  viability, T/C: 77.2%
[20]
  viability, T/C: 63.9%
[33]
  viability, T/C: 53.9%
[34]
  viability, T/C: 41.9%
[21]
  viability, T/C: 87.6%
[22]
  viability, T/C: 94.7%
[23]
  viability, T/C: 75.7%
[24]
  viability, T/C: 57.1%
[35]
  viability, T/C: 47.8%
[36]
  viability, T/C: 38.1%

## CC1COCCN1c1cc(C2(S(C)(=N)=O)CC2)nc(-c2ccnc3[nH]ccc23)n1 (stereo unspecified) + COC1C(OC(N)=O)C(O)C(Oc2ccc3c(O)c(NC(=O)c4ccc(O)c(CC=C(C)C)c4)c(=O)oc3c2C)OC1(C)C
Second compound 0.0316 µM
  IC50: > 10000 nM
Second compound 0.1 µM
  IC50: > 10000 nM
Second compound 0.316 µM
  IC50: > 10000 nM
Second compound 1 µM
  IC50: > 10000 nM
Second compound 3.16 µM
  IC50: > 10000 nM
Second compound 10 µM
  IC50: > 10000 nM
[1]
  viability, T/C: 101%
[2]
  viability, T/C: 82.5%
[3]
  viability, T/C: 105%
[4]
  viability, T/C: 77.9%
[25]
  viability, T/C: 74.9%
[26]
  viability, T/C: 56.8%
[5]
  viability, T/C: 82.6%
[6]
  viability, T/C: 87.9%
[7]
  viability, T/C: 89.6%
[8]
  viability, T/C: 87.9%
[27]
  viability, T/C: 82.7%
[28]
  viability, T/C: 63.5%
[9]
  viability, T/C: 89.2%
[10]
  viability, T/C: 86.8%
[11]
  viability, T/C: 101%
[12]
  viability, T/C: 81.1%
[29]
  viability, T/C: 94.7%
[30]
  viability, T/C: 52.2%
[13]
  viability, T/C: 95.4%
[14]
  viability, T/C: 105%
[15]
  viability, T/C: 95.2%
[16]
  viability, T/C: 92.7%
[31]
  viability, T/C: 78.2%
[32]
  viability, T/C: 62.2%
[17]
  viability, T/C: 105%
[18]
  viability, T/C: 93.6%
[19]
  viability, T/C: 91.9%
[20]
  viability, T/C: 81.9%
[33]
  viability, T/C: 79.1%
[34]
  viability, T/C: 63.1%
[21]
  viability, T/C: 92.4%
[22]
  viability, T/C: 105%
[23]
  viability, T/C: 88.9%
[24]
  viability, T/C: 72.5%
[35]
  viability, T/C: 68.8%
[36]
  viability, T/C: 56.1%
